According to patent publication US20250352654A1, “PHARMACEUTICAL AGENT CONJUGATES TO MODULATE MACROPHAGE AND INFLAMMATORY FUNCTIONS AND USES THEREOF” (REGENTS OF THE UNIVERSITY OF MINNESOTA, priority 2022, published 2025):
Bridge positions count the residues as written; N and C are the ends. Peptide text beside a SMILES is read from it. * marks the point of attachment. 5FAM = O=C1OC2(c3ccc(O)cc3Oc3cc(O)ccc32)c2ccc(C(=O)*)cc21; Ahx = NCCCCCC(=O)O

Tests used:
[1] = tested on: inflamed synovium of the arthritic joints; test: FAM-CRV homing in CIA mice (IHC/IF); format: in vivo, mouse; settings: i.v., 1 h, IHC
Procedure: FIGS. 7B-7D illustrates In vivo CRV peptide distribution in arthritic mouse models. (B) Scheme of synthesis of 64Cu-DOTA-CRV. (C) Representative immunohistochemistry (IHC) images of peptide accumulation in the tissues of collagen-induced-arthritis (CIA) mice with anti-FITC antibody for FAM-labeled CRV and FAM-GGS, upon intravenous injection for 1 h, respectively. Scale bars: 100 μm. (D) Representative IHC images of CRV-peptide and a control peptide (GGS) accumulation in the ankle joints of K/B×N serum-transfer arthritic mice at 1 h post intravenous injection as detected by FAM signals with anti-FITC antibody. Scale bar: 200 μm for 10× magnification; 100 μm for 20× magnification. All the animal experiments were performed in 3 mice per group. DOTA, 1,4,7,10-tetraazacyclododocane tetraacetic acid; FAM, carboxyfluorescein; FITC, fluorescein isothiocyanate.
FIG. 8A-8G CRV targets the inflamed synovium of the arthritic joints. (A) Scheme of the establishment of collagen-induced arthritis (CIA) model. (B) In vivo PET/CT images of 64Cu-DOTA and 64Cu-DOTA-CRV accumulation at the joints of mice with CIA. […] (C) Quantification of 64Cu-DOTA or 64Cu-DOTA-CRV uptake at the knees and ankles by analyzing PET data of the region of interest (ROI). […] (E) Representative IHC images of CRV-peptide accumulation in the knee joint as detected by FAM signals with anti-FITC antibody. […]

[2] = In vivo pharmacokinetics of DEX conjugates; settings: male, DBA/1J, mouse, plasma, iv, 1 mg kg^-1 (DEX equivalent); healthy mice; mean ± SD (n = 3)
Procedure: All the animal experiments were performed on 3 mice per group. The data are presented as the mean±standard deviation (SD). […] All the animal experiments were performed on 3 mice per group. The data are presented as the mean±standard deviation (SD). Statistical significance was calculated using Student's t test. *P<0.05, **P<0.01 between groups. […] ND, not determined.
HPLC-MS/MS analysis was performed using the chromatographic system consisting of UltiMate 3000 RSLCnano System (Thermo Fisher Scientific) and a ZORBAX C18 column (5 μm, 150 mm 0.5 mm, Agilent, Santa Clara, CA). The mobile phase was a mixture of H2O/acetonitrile with a gradient elution (from 90:10 to 10:90 and return to 90:10, v/v) at a flow rate of 15 μl/min. The eluent was introduced directly into the electrospray source of a tandem quadrupole mass spectrometer (TSQ VANTAGE, Thermo Fisher Scientific) that was operated in the positive mode. The spray voltage was set at 3000 V. The compounds were analyzed by multiple reaction monitoring (MRM) of the transitions of m/z (ESI+) 361.24→147.06 for PSL.
Healthy DBA/1J male mice at age of 8-9 weeks were deprived of food overnight with free access to water. […] Approximately 20 IL of blood was collected via facial vein at 5, 15, 30, 60 min and, 2, 6, 12, 24, and 48 h, and plasma were obtained by centrifugation at 500×g for 10 min. […]

[3] = Long-term toxicity of DEX conjugates in healthy mice; format: in vivo, mouse; settings: 2 mg kg-1 DEX equivalent, daily i.v. for 2 weeks
Procedure: (§1) (A) Quantification of immunofluorescent signals (Top) and representative immunofluorescent images (bottom) of TUNEL-positive cells showing apoptotic cells in tissues of mice receiving short-term treatments. (B-C) Plasma levels of liver enzymes alanine transaminase (ALT) and (F) aspartate transaminase (AST). […] Thymus and spleen weight in mice receiving long-term treatments.
(§2) The TUNEL staining was performed using an In Situ Cell Death Detection Kit (Roche Diagnostics GmbH, Mannheim, Germany). The paraffin sections were stained with TUNEL reaction mixture for 1 h at 37° C. followed by Hoechst staining for nucleus. The images were captured by using fluorescence microscopy EVOS M5000 and the fluorescence intensity of TUNEL positive cells was evaluated by ImageJ software for semi-quantification.
(§3) The aminotransferase quantification was performed to determine toxicity effect of different formulations of PSL on the liver. Blood samples were collected by cardiac puncture after the treatment. The levels of aspartate aminotransferase (AST) and alanine aminotransferase (ALT) in plasma were measured using assay kits from Stanbio (Boerne, TX).
(§4) Additionally, we examined the commonly seen systemic side effects including the reduced thymus and spleen weight due to increased apoptosis after a short-term low dose and a long-term glucocorticoid usage.

[4] = DEX-PEG conjugations with different PEG lengths in obese mice with ALI; format: in vivo, mouse; settings: 0.1 mg/kg DEX equivalent i.v. every other day for 3 weeks
Procedure: (A) Body weight of mice in each treatment group. (B) Blood glucose of mice during the ITT experiment. Mice were fasted for 6 hours, and […] of insulin was administered via intraperitoneal (i.p.) injection. The blood glucose levels were measured using Clarity BG1000 Blood Glucose Meter Strips at 0, 15, 30, 60, 90, and 120 minutes after the injection. (C) Thymus weight of mice in each group at the end of the study. Triglycerides (D), total cholesterol (E) and non-HDL cholesterol (F) in mice plasma were quantified by LiquiColor® Test (Enzymatic) Kit. Error bars indicate S.E.M., n=4. *p<0.05 and **p<0.01 (Student's t-test).
Liver was collected, fixed and sectioned. H&E staining was carried out according to the standard protocol. Scale bar, […] for all images.
Male C57 mice were subjected to high-fat diet feeding for 8 weeks to induce obesity. An acute lung injury (ALI) model was established in the obesity mice by administering 30 μg of LPS intratracheally per mouse.
In addition, lean mice and obese mice without ALI were included in the study as controls and received no treatment. Body weight of the mice was monitored every other day during the study. One day prior to sacrificing the mice, an insulin tolerance test (ITT) was conducted. Blood and major organs were collected at the end of the study, and plasma triglycerides, total and non-HDL cholesterol were quantified. The organs were weighed and sectioned for H&E staining.

[5] = Short-term side effects of DEX conjugates in CIA mice; format: in vivo, mouse; settings: 0.01 mg kg-1 DEX equivalent i.v. every two days for one week
Procedure: as §1, §2, §3, §4

| Compound | peptide accumulation in other organs [1] | AUC(0-t) [2] [ng·h/mL] | apoptosis in thymus and spleen (TUNEL), long-term [3] | thymus and spleen weight, long-term [3] | Thymus weight [4] | body weights or blood glucose [4] | triglycerides in the plasma [4] | apoptosis in tissues (TUNEL), short-term [5] |
| --- | --- | --- | --- | --- | --- | --- | --- | --- |
| CC(C)C[C@@H]1NC(=O)[C@H](C(C)C)NC(=O)[C@H](CCCNC(=N)N)NC(=O)[C@@H](NC(=O)CCCCCNC(=O)c2ccc3c(c2)C(=O)OC32c3ccc(O)cc3Oc3cc(O)ccc32)CSSC[C@@H](C(=O)O)NC(=O)[C@H](CO)NC(=O)CNC(=O)[C@H](CO)NC(=O)[C@H](CCCNC(=N)N)NC1=O [CRV] ({5FAM-Ahx}-CRVLRSGSC-OH; disulfide 1-9) | some accumulation of CRV in the liver and kidney, while no or much less in other organs | – | – | – | – | – | – | – |
| C[C@@H]1C[C@H]2[C@@H]3CCC4=CC(=O)C=C[C@]4(C)[C@@]3(F)[C@@H](O)C[C@]2(C)[C@@]1(O)C(=O)CO [DEX, dexamethasone] | – | 23.2 ± 5.14 | increased apoptosis in thymus and spleen | most significant weight loss of thymus and spleen | reduces thymus weight | no change | elevates the blood triglyceride | increases the level of apoptosis mainly in the thymus |
